The text below walks through data of patent US20250145631A1, “HETEROCYCLIC COMPOUND ACTING ON G12D MUTANT KRAS PROTEIN” (Astellas Pharma Inc., priority 2022, published 2025).

pIC50: −log10 of the molar value.

Holding throughout (format): cell-based
Assay [1] addresses T1, KRAS G12D (Homo sapiens, UniProt P01116, G12D).
T1 construct: host or cells: AsPC-1 (human pancreatic cancer line)
The experiment in a line: KRAS degradation activity by Cell ELISA in AsPC-1 cells (Test Example 1). To be noted: for Dmax: ASPC1, overnight treatment, read-out: Dmax (degradation rate at the concentration showing highest degradation); for Dmax / DC50: Cell ELISA; for DC50: overnight treatment, read-out: DC50 (50% degradation concentration of KRAS). As to the method:
The KRAS degradation activity of test compounds was evaluated by measuring the expression levels of KRAS G12D by Cell ELISA.
AsPC-1 cells were seeded at 20 μL per well on 384-well plates (from Greiner bio-one) to give 2.0×10^4 cells per well. As for the cell culture conditions, RPMI 1640 (from Sigma-Aldrich) medium containing 10% fetal bovine serum (from Cytiva) was used in the presence of 5% CO2 at 37° C.
The next day, the test compounds (10 points having final concentrations in the range of 10 μM to 0.3 nM) and DMSO (from FUJIFILM Wako Pure Chemical Corporation), which was the solvent for the test compounds, as a negative control were diluted 500-fold with a fresh medium and were added at 20 μL per well. The cells were cultured overnight. The next day, the culture supernatant was removed, and 4% paraformaldehyde phosphate buffer (from FUJIFILM Wako Pure Chemical Corporation) was added at 20 μL per well. The plates were allowed to stand for 30 minutes at room temperature to thus immobilize the cells. Then, the supernatant was removed, and 0.1% Triton X-100 (from Amersham Biosciences)-containing Phosphate buffered saline (PBS; from FUJIFILM Wako Pure Chemical Corporation) was added at 20 μL per well. After allowing to stand for 10 minutes at room temperature, the supernatant was removed. PBS was added at 25 μL per well, and the supernatant was removed to thus wash each well. The washing was performed twice in total. Next, the supernatant was removed, and 0.5% sodium dodecyl sulfate (SDS; from Invitrogen)-containing PBS was added at 20 μL per well. After allowing to stand at room temperature for 10 minutes, the supernatant was removed by a centrifugal operation (using a centrifugal dehydrator machine, the supernatant was removed by the same method hereinafter). PBS was added at 25 μL per well, and the supernatant was removed to thus wash each well. The washing was performed twice in total. The supernatant was removed, and blocking solution (Intercept Blocking Buffer; from Li—COR Biosciences) was added at 20 μL per well. After allowing to stand for 30 minutes at room temperature, the supernatant was removed, and a solution obtained by diluting anti-β-actin antibody (Anti-beta Actin antibody [mAbcam 8226]-Loading Control; from abcam) 1,000-fold with blocking solution and a solution obtained by diluting anti-Ras (G12D Mutant Specific) antibody (Ras (G12D Mutant Specific) (D8H7) Rabbit mAb #14429; from Cell Signaling Technology) and anti-β-actin antibody (from abcam) 1,000-fold with blocking solution were respectively added to positive control wells and the other wells at 15 μL per well as a primary antibody. The plates were allowed to stand overnight at 4° C.
The next day, the supernatant was removed. PBS was added at 25 μL per well, and the supernatant was removed to thus wash each well. The washing was performed twice in total. The supernatant was removed, and a solution obtained by diluting Donkey anti-Mouse IgG H&L (IRDye 680RD) (from Li—COR Biosciences) and Goat anti-Rabbit IgG H&L (IRDye 800CW) (from Li—COR Biosciences) 1,000-fold with blocking solution was added at 15 μL per well as a secondary antibody. A solution obtained by diluting Donkey anti-Mouse IgG H&L (IRDye 680RD) (from Li—COR Biosciences) 1,000-fold with blocking solution was added to a positive control well as a secondary antibody. After allowing to stand for 1 hour at room temperature, the supernatant was removed. PBS was added at […], and the supernatant was removed to thus wash each well. The washing was performed twice in total. After removing the supernatant, the plates were dried with air at room temperature for 2 hours or more, and the 700 nm and 800 nm fluorescent signals were measured with Aerius (from Li—COR Biosciences). […]

For assay [2], the system named is phosphorylation of ERK (Thr202/Tyr204). The experiment in a line: ERK phosphorylation inhibitory effect by Cell ELISA in AsPC-1 cells (Test Example 2). To be noted: Homo sapiens, ASPC1, overnight treatment, Cell ELISA, read-out: IC50 (ERK phosphorylation inhibition). As to the method:
The ERK phosphorylation inhibitory effect of test compounds was evaluated by measuring phosphorylation of threonine 202 (Thr202) and tyrosine 204 (Tyr204) of ERK located downstream of the KRAS signal by Cell ELISA.
AsPC-1 cells were seeded on 384-well plates at 20 µL/well to give 2.0×10^4 cells per well. As for the cell culture conditions, RPMI 1640 medium containing 10% fetal bovine serum was used in the presence of 5% CO2 at 37° C.
The next day, the test compounds (10 points having final concentrations in the range of 10 μM to 0.3 nM), trametinib (MEK inhibitor) of a final concentration of […] as positive control and DMSO, which was the solvent for the test compounds, as negative control were diluted 500-fold with a fresh medium and were added at 20 μL per well. The cells were cultured overnight. After culturing, 30% glyoxal solution (40% glyoxal [from Nacalai Tesque]was diluted with PBS) was quickly added at 30 μL per well, and the plates were allowed to stand for 120 minutes at room temperature to thus immobilize the cells. Then, the plates were centrifuged to remove the supernatant (using a centrifugal dehydrator machine, the supernatant was removed by the same method hereinafter), and 0.10% Triton X-100-containing PBS was added at 20 μL per well. After allowing to stand for 10 minutes at room temperature, the supernatant was removed, and the same operation was further repeated. Next, 0.5% SDS-containing PBS was added at 20 μL per well, and after allowing to stand at room temperature for 30 minutes, the supernatant was removed. Subsequently, blocking solution (Intercept Blocking Buffer) was added at 20 μL per well, and the plates were allowed to stand for 1 hour at room temperature. The supernatant was removed, and an ERK (Thr202/Tyr204) phosphorylation antibody (Phospho-p44/42 MAPK (Erk 1/2) (Thr202/Tyr204) (D13.14.4E) XP Rabbit mAb; from Cell Signaling Technology) diluted 2,500-fold with blocking solution was added at 15 μL per well as a primary antibody. The plates were allowed to stand at 4° C. overnight.
The next day, the supernatant was removed. 0.05% Tween-20 (from Thermo Fisher Scientific)-containing PBS was added at 50 μL per well, and the supernatant was removed to thus wash each well. The washing was performed three times in total. After washing, Goat anti-Rabbit IgG H&L (IRDye 800CW) diluted 1,000-fold with blocking solution was added at 15 μL per well as a secondary antibody, and the plates were allowed to stand for 1 hour at room temperature. The supernatant was removed, and each well was washed three times with 0.05% Tween-20-containing PBS in the same manner as after the primary antibody reaction. After removing the supernatant, the plates were dried with air at room temperature for 3 hours or more, and the 800-nm fluorescent signals were measured with Aerius.
With the signaling value at the time of addition of DMSO taken as 100% and with the signaling value at the time of addition of […] trametinib taken as 0%, the 50% inhibitory concentration values (IC50) were calculated by Sigmoid-Emax nonlinear regression analysis. The calculated 50% inhibition represents the inhibition at the highest concentration evaluated (10 μM) for a compound that exceeds the concentration in the evaluation range.
(§1) In the tables presented below, Ex represents Example No. The IC50 of Ex. 13, Ex. 15, and Ex. 16 were calculated using the molecular weights as tetrahydrochloride, and the IC50 of Ex. 14 was calculated using the molecular weight as trihydrochloride.

The test system of assay [3] is human G12D mutant KRAS-positive pancreatic cancer line AsPC-1. The assay is described as follows: Non-anchorage-dependent cell growth inhibitory effect, spheroid 3D culture (Test Example 3). To be noted: ASPC1, 144 h, AsPC-1 spheroid 3D culture, 6 days, CellTiter Glo 2.0, read-out: IC50 (non-anchorage-dependent cell growth inhibition). Here is the method:
The non-anchorage-dependent cell growth inhibitory effect of test compounds was evaluated by spheroid 3D cell culture.
AsPC-1 cells were seeded on low-cell-adhesive round bottom 384-well plates (PrimeSurface: from Sumitomo Bakelite) at 20 μL (or […])/well to give 5×10^2 cells per well. As for the cell culture conditions, RPMI 1640 medium containing 10% fetal bovine serum was used in the presence of 5% CO2 at 37° C.
The next day, the test compounds (10 points or 6 points having final concentrations in the range of 10 μM to 0.3 nM) and DMSO, which was the solvent for the test compounds, as a negative control were diluted 500-fold (or 100-fold) with a fresh medium and were added at 20 μL (or […]) per well. After culturing in the presence of 5% C02 at 37° C. for 6 days, CellTiter Glo 2.0 (from Promega) was added at 20 μL per well. After stirring with a plate mixer (from FINEPCR) at normal temperature for 1 hour, the luminescent signals were measured with ARVO X3 (from PerkinElmer).
With the signaling value in treatment with DMSO taken as 100% and with the signaling value in the medium alone without cells taken as 0%, the 50% inhibitory concentration values (IC50) were calculated by Sigmoid-Emax nonlinear regression analysis. The calculated 50% inhibition represents the inhibition at the highest concentration evaluated (10 μM) for a compound that exceeds the concentration in the evaluation range.
as §1

T1 sequence (P01116 1-188 isoform P01116-2 G12D): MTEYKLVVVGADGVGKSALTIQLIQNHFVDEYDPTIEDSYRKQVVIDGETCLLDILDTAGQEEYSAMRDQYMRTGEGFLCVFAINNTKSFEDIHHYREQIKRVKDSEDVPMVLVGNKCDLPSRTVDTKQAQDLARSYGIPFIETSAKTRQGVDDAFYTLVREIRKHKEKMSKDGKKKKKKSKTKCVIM

For `Cc1c(F)cc2[nH]ncc2c1-c1c(C2CC2)cc2c(N3C[C@@H]4C[C@H]3CN4)nc(OC3CCOCC3)nc2c1OCc1ccc(C(=O)N2CCN(Cc3ccc4c(N5CCC(=O)NC5=O)n(C)nc4c3)C[C@@H]2C)cc1` (atropisomer, axis not shown) [Example 22], the Dmax in assay [1] turned out to be 84%. The DC50 in assay [1] came to 114 nM. In addition, the pIC50 in assay [2] is 6.55; in assay [3], 6.89.
Taken in the same sequence, the figures for `Cc1c(F)cc2[nH]ncc2c1-c1c(C2CC2)cc2c(N3C[C@@H]4C[C@H]3CN4)nc(OC3CCOCC3)nc2c1OCc1ccc(C(=O)N2CCN(Cc3cccc4c(N5CCC(=O)NC5=O)nn(C)c34)CC2)cc1` (atropisomer, axis not shown) [Example 23] were 61%, 2810 nM, 5.81 and 5.96.
As to `Cc1c(F)cc2[nH]ncc2c1-c1c(C2CC2)cc2c(N3C[C@@H]4C[C@H]3CN4)nc(OC3CCOCC3)nc2c1OCc1ccc(C(=O)N2CCN(Cc3ccc4c(N5CCC(=O)NC5=O)nn(C)c4n3)C[C@@H]2C)cc1` (atropisomer, axis not shown) [Example 24], in assay [1], the Dmax is 78% and the DC50 is 297 nM. The pIC50 in assay [2] was 6.64. The pIC50 in assay [3] is 6.65.
Taken in the same sequence, the figures for `CC[C@H]1CN(Cc2ccc3c(N4CCC(=O)NC4=O)nn(C)c3c2)CCN1C(=O)c1ccc(COc2c(-c3c(C)c(F)cc4[nH]ncc34)c(C3CC3)cc3c(N4C[C@@H]5C[C@H]4CN5)nc(OC4CCOCC4)nc23)cc1` (atropisomer, axis not shown) [Example 25] were 70%, 856 nM, 6.18 and 6.34.
Taken in the same sequence, the figures for `Cc1c(F)cc2[nH]ncc2c1-c1c(C2CC2)cc2c(N3C[C@@H]4C[C@H]3CN4)nc(OC3CCOCC3)nc2c1OCc1ccc(C(=O)N2CCN(Cc3ccc(CN4CCC(=O)NC4=O)cc3F)C[C@@H]2C)cc1` (atropisomer, axis not shown) [Example 26] were 67%, 5220 nM, 5.69 and 5.87.
As for `Cc1c(F)cc2[nH]ncc2c1-c1c(C2CC2)cc2c(N3C[C@@H]4C[C@H]3CN4)nc(OC3CCOCC3)nc2c1OCc1ccc(C(=O)N2CCN(Cc3ccc4c(c3)c(N3CCC(=O)NC3=O)nn4C)C[C@@H]2C)cc1` (atropisomer, axis not shown) [Example 27], the Dmax in assay [1] was 25%. The “degradation rate at the highest concentration evaluated (printed in DC50 column)” value in assay [1] (at 10 μM) turned out to be 25% at 10 μM. The values for the pIC50 in assay [2] and in assay [3] were 5.56 and 5.72, respectively.
As for `Cc1c(F)cc2[nH]ncc2c1-c1c(C2CC2)cc2c(N3C[C@@H]4C[C@H]3CN4)nc(OC3CCOCC3)nc2c1OCc1ccc(C(=O)N2CCN(CCOc3cccc(N4CCC(=O)NC4=O)c3)CC2)cc1` (atropisomer, axis not shown) [Example 28], the Dmax in assay [1] stood at 54%. Also, the DC50 in assay [1] was found to be 5530 nM. The pIC50 in assay [2] was 5.66; in assay [3], 5.70.
The like results for `Cc1c(F)cc2[nH]ncc2c1-c1c(C2CC2)cc2c(O[C@H]3CCNC3)cc(OC[C@H]3CCCO3)nc2c1OCc1ccc(C(=O)N2CCN(Cc3ccc4c(c3)n(C)c(=O)n4C3CCC(=O)NC3=O)C[C@@H]2C)cc1` (atropisomer, axis not shown) [Example 32] were, in that order, 78%, 46 nM, 7.16 and 7.22.
The like results for `Cc1c(F)cc2[nH]ncc2c1-c1c(C2CC2)cc2c(N3C[C@@H]4C[C@H]3CN4)nc(OC3CCOCC3)nc2c1OCc1ccc(C(=O)N2CCN(CCc3ccc4c(c3)c(N3CCC(=O)NC3=O)nn4C)C[C@@H]2C)cc1` (atropisomer, axis not shown) [Example 42] were, in that order, 89%, 294 nM, 6.44 and 6.40.
